Results from patent publication US20090247559A1 (Exelixis, Inc., priority 2007, published 2009).
Read-outs that look alike come from different tables or passages of the source.

Key:
CK2 = CK2 (Homo sapiens, UniProt P68400); assay: CK2 inhibition, biochemical chemiluminescence holoenzyme assay (Kinase Glo, IC50 determination); conditions: Table 1 activity class; symbol given only if active; read-out: CK2 IC50 (Activity C)
How it was run: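 Holoenzyme CK2 assay; compounds pre-incubated with substrate and enzyme, then reacted 150 min at 24-27° C. Remaining ATP measured as luminescence with Kinase Glo, and IC50 derived from the signal.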

CDC7 = CDC7 (Homo sapiens, UniProt O00311); assay: CDC7 inhibition, biochemical chemiluminescence assay (Kinase Glo, IC50 determination)
How it was run: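 CDC7 enzyme preincubated with compound 10 min at ambient temperature, then ATP mix in Tris Base added; reaction 90 min at 24-27 °C. Remaining ATP quantified by Kinase Glo luminescence to give IC50.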

[1] = target: PIM (PIM-1, PIM-2, and/or PIM-3); assay: PIM-1, PIM-2 and PIM-3 inhibition, biochemical chemiluminescence assays (Kinase Glo, IC50 determination); conditions: Table 1 activity class; PIM refers to PIM-1, PIM-2, and/or PIM-3; read-out: PIM IC50 (Activity B)
[2] = Table 1 activity class, symbol given only if active, read-out: CDC7 IC50 (Activity A)
[3] = compounds in Table 1, read-out: CDC7 IC50 value

Sequence of CK2 (P68400 whole entry): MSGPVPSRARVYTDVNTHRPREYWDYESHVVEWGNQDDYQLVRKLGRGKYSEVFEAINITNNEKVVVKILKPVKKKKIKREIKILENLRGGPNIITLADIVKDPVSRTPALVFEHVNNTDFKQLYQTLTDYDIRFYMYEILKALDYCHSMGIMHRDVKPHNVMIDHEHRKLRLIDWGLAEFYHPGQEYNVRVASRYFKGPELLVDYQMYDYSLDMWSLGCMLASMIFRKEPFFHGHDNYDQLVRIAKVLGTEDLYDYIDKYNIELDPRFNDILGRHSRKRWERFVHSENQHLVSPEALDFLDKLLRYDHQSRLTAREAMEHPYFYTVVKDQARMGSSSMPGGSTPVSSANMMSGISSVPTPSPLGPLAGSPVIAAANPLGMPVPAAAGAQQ
Sequence of CK2 (P67870 whole entry partner): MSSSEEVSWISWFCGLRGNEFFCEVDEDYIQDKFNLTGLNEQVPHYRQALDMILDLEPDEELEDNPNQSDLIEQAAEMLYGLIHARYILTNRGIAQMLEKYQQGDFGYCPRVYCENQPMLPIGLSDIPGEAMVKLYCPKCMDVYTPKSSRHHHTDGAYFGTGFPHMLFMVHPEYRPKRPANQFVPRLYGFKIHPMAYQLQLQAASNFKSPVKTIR
Sequence of CDC7 (O00311 whole entry): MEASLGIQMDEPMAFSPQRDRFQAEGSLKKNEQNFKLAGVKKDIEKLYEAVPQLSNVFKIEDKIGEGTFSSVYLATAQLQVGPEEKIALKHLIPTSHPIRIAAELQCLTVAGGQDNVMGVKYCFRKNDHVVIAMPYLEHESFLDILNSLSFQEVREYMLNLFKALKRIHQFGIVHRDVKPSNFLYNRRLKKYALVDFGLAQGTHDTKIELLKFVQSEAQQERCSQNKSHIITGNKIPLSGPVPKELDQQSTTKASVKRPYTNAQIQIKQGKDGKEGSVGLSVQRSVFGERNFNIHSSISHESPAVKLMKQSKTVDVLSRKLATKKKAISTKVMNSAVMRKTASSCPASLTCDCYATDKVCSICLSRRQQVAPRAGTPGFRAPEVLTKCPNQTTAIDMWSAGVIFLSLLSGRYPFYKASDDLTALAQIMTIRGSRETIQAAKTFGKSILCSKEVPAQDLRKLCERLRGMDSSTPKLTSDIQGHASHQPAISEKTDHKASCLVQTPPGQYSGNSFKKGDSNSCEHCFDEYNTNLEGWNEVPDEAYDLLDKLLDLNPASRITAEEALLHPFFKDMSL
Sequence of CDC7 (Q9UBU7 whole entry partner): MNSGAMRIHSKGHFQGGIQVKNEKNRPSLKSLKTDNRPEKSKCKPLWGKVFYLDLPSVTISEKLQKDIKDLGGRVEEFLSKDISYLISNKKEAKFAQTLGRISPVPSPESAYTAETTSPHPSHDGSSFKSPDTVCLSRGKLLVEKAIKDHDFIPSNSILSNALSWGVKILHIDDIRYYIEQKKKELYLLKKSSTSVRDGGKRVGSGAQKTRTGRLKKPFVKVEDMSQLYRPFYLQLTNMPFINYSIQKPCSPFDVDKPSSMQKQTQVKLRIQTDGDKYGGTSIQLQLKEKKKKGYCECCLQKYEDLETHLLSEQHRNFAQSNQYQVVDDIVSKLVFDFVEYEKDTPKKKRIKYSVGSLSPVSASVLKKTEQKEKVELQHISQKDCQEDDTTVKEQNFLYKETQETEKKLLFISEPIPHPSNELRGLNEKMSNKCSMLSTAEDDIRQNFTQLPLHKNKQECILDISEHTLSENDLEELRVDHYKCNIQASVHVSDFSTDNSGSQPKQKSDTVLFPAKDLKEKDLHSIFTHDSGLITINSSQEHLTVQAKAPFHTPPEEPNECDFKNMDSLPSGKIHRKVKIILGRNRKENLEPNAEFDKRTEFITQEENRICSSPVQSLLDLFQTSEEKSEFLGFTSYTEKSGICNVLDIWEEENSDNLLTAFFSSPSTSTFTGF

Row | IC50 (CK2) [µM] | IC50 (CDC7; [2]) [µM] | IC50 [1] [µM] | IC50 (CDC7; [3]) [µM] | Compound | IC50 (CDC7; CDC7 IC50 (Activity A), Table 1 activity class, symbol given only if active) [µM]
1 | < 10 | < 10 | < 10 |  | Cc1cc2c(cc1[N+](=O)O)oc1c(=O)[nH]c(CN3CC[C@H](O)C3)nc12 [Compound 433, hydroxy(2-{[(3S)-3-hydroxypyrrolidin-1-yl]methyl}-8-methyl-4-oxo-3,4-dihydro[1]benzofuro[3,2-d]pyrimidin-7-yl)oxoammonium] | 
2 | < 10 | < 10 | < 10 |  | Cc1cc(Br)cc2c1oc1c(=O)[nH]c(CN3CC[C@H](O)C3)nc12 [Compound 434, 8-bromo-2-{[(3S)-3-hydroxypyrrolidin-1-yl]methyl}-6-methyl[1]benzofuro[3,2-d]pyrimidin-4(3H)-one] | 
3 | < 10 | < 10 | < 10 |  | CN1CCC(NCc2ccc(-c3nc4c(oc5ccc(Br)cc54)c(=O)[nH]3)c(Cl)c2)CC1 [Compound 435, 8-bromo-2-(2-chloro-4-{[(1-methylpiperidin-4-yl)amino]methyl}phenyl)[1]benzofuro[3,2-d]pyrimidin-4(3H)-one] | 
4 | < 10 | < 10 | < 10 |  | CN1CCN(Cc2nc3c(oc4cc(O)c(Br)cc43)c(=O)[nH]2)CC1 [Compound 438, 8-bromo-7-hydroxy-2-[(4-methylpiperazin-1-yl)methyl][1]benzofuro[3,2-d]pyrimidin-4(3H)-one] | 
5 | < 10 | < 10 | < 10 |  | Nc1ccc(C(=O)Nc2ccc(-c3nc4c(oc5ccc(Br)cc54)c(=O)[nH]3)c(Cl)c2)cn1 [Compound 439, 6-amino-N-[4-(8-bromo-4-oxo-3,4-dihydro[1]benzofuro[3,2-d]pyrimidin-2-yl)-3-chlorophenyl]pyridine-3-carboxamide] | 
6 | < 10 | < 10 | < 10 |  | Cc1ccc2oc3c(=O)[nH]c(CN4CC[C@H](O)C4)nc3c2c1N [Compound 440, 9-amino-2-{[(3S)-3-hydroxypyrrolidin-1-yl]methyl}-8-methyl[1]benzofuro[3,2-d]pyrimidin-4(3H)-one] | 
7 | < 10 | < 10 | < 10 | < 0.1 | CSc1ccc2oc3c(=O)[nH]c(CN4CC[C@H](O)C4)nc3c2c1 [Compound 442, 2-{[(3S)-3-hydroxypyrrolidin-1-yl]methyl}-8-(methylthio)[1]benzofuro[3,2-d]pyrimidin-4(3H)-one] | 
8 | < 10 | < 10 | < 10 |  | O=c1[nH]c(CN2CC[C@H](O)C2)nc2c1oc1ccc(NCCc3cccc(Cl)c3)cc12 [Compound 444, 8-{[2-(3-chlorophenyl)ethyl]amino}-2-{[(3S)-3-hydroxypyrrolidin-1-yl]methyl}[1]benzofuro[3,2-d]pyrimidin-4(3H)-one] | 
9 | < 10 | < 10 | < 10 |  | COc1c(Br)ccc2oc3c(=O)[nH]c(CN4CC[C@H](O)C4)nc3c12 [Compound 447, 8-bromo-2-{[(3S)-3-hydroxypyrrolidin-1-yl]methyl}-9-(methyloxy)[1]benzofuro[3,2-d]pyrimidin-4(3H)-one] | 
10 | < 10 | < 10 | < 10 |  | COc1cccc2oc3c(=O)[nH]c(CN4CC[C@H](O)C4)nc3c12 [Compound 448, 2-{[(3S)-3-hydroxypyrrolidin-1-yl]methyl}-9-(methyloxy)[1]benzofuro[3,2-d]pyrimidin-4(3H)-one] | 
11 | < 10 | < 10 | < 10 |  | COc1ccc2oc3c(=O)[nH]c(CN4CC[C@H](O)C4)nc3c2c1 [Compound 451, 2-{[(3S)-3-hydroxypyrrolidin-1-yl]methyl}-8-(methyloxy)[1]benzofuro[3,2-d]pyrimidin-4(3H)-one] | 
12 | < 10 | < 10 | < 10 | < 0.1 | C#Cc1ccc2oc3c(=O)[nH]c(CN4CC[C@H](O)C4)nc3c2c1 [Compound 458, 8-ethynyl-2-{[(3S)-3-hydroxypyrrolidin-1-yl]methyl}[1]benzofuro[3,2-d]pyrimidin-4(3H)-one] | 
13 | < 10 | < 10 | < 10 |  | CCc1ccc2oc3c(=O)[nH]c(CN4CC[C@H](O)C4)nc3c2c1 [Compound 460, 8-ethyl-2-{[(3S)-3-hydroxypyrrolidin-1-yl]methyl}[1]benzofuro[3,2-d]pyrimidin-4(3H)-one] | 
14 | < 10 | < 10 | < 10 |  | CC(C)COc1cccc2oc3c(=O)[nH]c(CN4CC[C@H](O)C4)nc3c12 [Compound 469, 2-{[(3S)-3-hydroxypyrrolidin-1-yl]methyl}-9-[(2-methylpropyl)oxy][1]benzofuro[3,2-d]pyrimidin-4(3H)-one] | 
15 | < 10 | < 10 | < 10 | < 0.1 | O=c1[nH]c([C@@H]2CCCN2)nc2c1oc1ccc(Br)cc12 [Compound 470, 8-bromo-2-[(2S)-pyrrolidin-2-yl][1]benzofuro[3,2-d]pyrimidin-4(3H)-one] | 
16 | < 10 | < 10 | < 10 | < 0.1 | O=c1[nH]c([C@H]2CCCN2)nc2c1oc1ccc(Br)cc12 [Compound 471, 8-bromo-2-[(2R)-pyrrolidin-2-yl][1]benzofuro[3,2-d]pyrimidin-4(3H)-one] | 
17 | < 10 | < 10 | < 10 | < 0.1 | O=c1[nH]c(CN2CC[C@H](O)C2)nc2c1oc1ccc3c(c12)OCO3 [Compound 476, 9-{[(3S)-3-hydroxypyrrolidin-1-yl]methyl}[1,3]dioxolo[4,5][1]benzofuro[3,2-d]pyrimidin-7(8H)-one] | 
18 | < 10 | < 10 | < 10 | < 0.1 | O=c1[nH]c([C@@H]2C[C@@H](O)CN2)nc2c1oc1ccc(Br)cc12 [Compound 488, 8-bromo-2-[(2S,4R)-4-hydroxypyrrolidin-2-yl][1]benzofuro[3,2-d]pyrimidin-4(3H)-one] | 
19 | < 10 | < 10 | < 10 | < 0.1 | N[C@@H](c1ccccc1)c1nc2c(oc3ccc(Br)cc32)c(=O)[nH]1 [Compound 489, 2-[(S)-amino(phenyl)methyl]-8-bromo[1]benzofuro[3,2-d]pyrimidin-4(3H)-one] | 
20 | < 10 | < 10 | < 10 | < 0.1 | N[C@H](c1ccccc1)c1nc2c(oc3ccc(Br)cc32)c(=O)[nH]1 [Compound 490, 2-[(R)-amino(phenyl)methyl]-8-bromo[1]benzofuro[3,2-d]pyrimidin-4(3H)-one] | 
21 | < 10 | < 10 | < 10 | < 0.1 | C[C@H](N)c1nc2c(oc3ccc(Br)cc32)c(=O)[nH]1 [Compound 492, 2-[(1S)-1-aminoethyl]-8-bromo[1]benzofuro[3,2-d]pyrimidin-4(3H)-one] | 
22 | < 10 | < 10 | < 10 | < 0.1 | C[C@@H](N)c1nc2c(oc3ccc(Br)cc32)c(=O)[nH]1 [Compound 493, 2-[(1R)-1-aminoethyl]-8-bromo[1]benzofuro[3,2-d]pyrimidin-4(3H)-one] | 
23 | < 10 | < 10 | < 10 | < 0.1 | CC(C)NCc1nc2c(oc3ccc(Br)cc32)c(=O)[nH]1 [Compound 496, 8-bromo-2-{[(1-methylethyl)amino]methyl}[1]benzofuro[3,2-d]pyrimidin-4(3H)-one] | 
24 | < 10 | < 10 | < 10 |  | C[C@H](O)c1nc2c(oc3ccc(Br)cc32)c(=O)[nH]1 [Compound 497, 8-bromo-2-[(1S)-1-hydroxyethyl][1]benzofuro[3,2-d]pyrimidin-4(3H)-one] | 
25 | < 10 | < 10 | < 10 | < 0.1 | O=c1[nH]c(CN2CC[C@H](CO)C2)nc2c1oc1ccc(Br)cc12 [Compound 498, 8-bromo-2-{[(3S)-3-(hydroxymethyl)pyrrolidin-1-yl]methyl}[1]benzofuro[3,2-d]pyrimidin-4(3H)-one] | 
26 | < 10 | < 10 | < 10 |  | O=c1[nH]c(C2CCCO2)nc2c1oc1ccc(Br)cc12 (centres unmarked) [Compound 499, 8-bromo-2-(tetrahydrofuran-2-yl)[1]benzofuro[3,2-d]pyrimidin-4(3H)-one] | 
27 | < 10 | < 10 | < 10 |  | O=c1[nH]c([C@@H]2CSCN2)nc2c1oc1ccc(Br)cc12 [Compound 500, 8-bromo-2-[(4R)-1,3-thiazolidin-4-yl][1]benzofuro[3,2-d]pyrimidin-4(3H)-one] | 

Row | Compound | IC50 (CK2) [µM] | IC50 (CDC7; [2]) [µM] | IC50 [1] [µM] | IC50 (CDC7; [3]) [µM] | IC50 (CDC7; CDC7 IC50 (Activity A), Table 1 activity class, symbol given only if active) [µM]
28 | O=c1c2oc3ccc(Br)cc3c2nc2n1CN1CCC[C@H]21 [Compound 452, (13bR)-11-bromo-1,2,3,13b-tetrahydro-7H-[1]benzofuro[3,2-d]pyrrolo[1′,2′:3,4]imidazo[1,5-a]pyrimidin-7-one] | < 10 | < 10 | < 10 | < 0.1 | 
29 | O=c1c2oc3ccc(Br)cc3c2nc2n1CN1CCC[C@@H]21 [Compound 453, (13bS)-11-bromo-1,2,3,13b-tetrahydro-7H-[1]benzofuro[3,2-d]pyrrolo[1′,2′:3,4]imidazo[1,5-a]pyrimidin-7-one] | < 10 | < 10 | < 10 | < 0.1 | 
30 | C[Si](C)(C)C#Cc1ccc2oc3c(=O)[nH]c(CN4CC[C@H](O)C4)nc3c2c1 [Compound 459, 2-{[(3S)-3-hydroxypyrrolidin-1-yl]methyl}-8-[(trimethylsilyl)ethynyl][1]benzofuro[3,2-d]pyrimidin-4(3H)-one] | < 10 |  | < 10 |  | < 10
